# According to patent publication US10245261B2, “Substituted indol-5-ol derivatives and their therapeutic applications” (NantBioScience, Inc., priority 2013, dated 2019):
# Like-named read-outs stand apart in the source and are kept apart here.
# Columns and labels:
# [1] = system: U251 human CNS tumor xenograft; test: U251 human CNS tumor xenograft model in nude mice; format: in vivo, mouse; settings: 60 mg/kg intraperitoneal
# Method: The in vivo anti-tumor efficacy of Compound 53 has been studied using U251 human CNS tumor xenograft model in nude mice (FIG. 16). This was a subcutaneous early stage experiment (defined as a median tumor staging size less than 200 mg). Compound 53 or vehicle control was administered by Intraperitoneal injection for various days with different doses. […] Compound 53 was well tolerated at this doses with maximum body weight lose 3.4%.
# [2] = system: SC LOX IMVI Melanoma Xenografts; test: SC LOX IMVI Melanoma Xenografts model in nude mice; format: in vivo, mouse; settings: 50 mg/kg intraperitoneal
# Method: The in vivo anti-tumor efficacy of Compound 53 has been studied using SC LOX IMVI Melanoma Xenografts model in nude mice (FIG. 76). This was a subcutaneous early stage experiment (defined as a median tumor staging size less than 200 mg). Compound 53 or vehicle control was administered by Intraperitoneal injection for various days with different doses.
# [3] = system: NCI 60 cancer cell line panel; test: NCI-60 DTP Human Tumor Cell Line Panel, SRB growth inhibition; format: cell-based; settings: for GI50: Homo sapiens
# Method: The human tumor cell lines of the cancer screening panel are grown in RPMI 1640 medium containing 5% fetal bovine serum and 2 mM L-glutamine. For a typical screening experiment, cells are inoculated into 96 well microtiter plates in 100 μL at plating densities ranging from 5,000 to 40,000 cells/well depending on the doubling time of individual cell lines. After cell inoculation, the microtiter plates are incubated at 37° C., 5% CO2, 95% air and 100% relative humidity for 24 h prior to addition of experimental drugs.
# After 24 h, two plates of each cell line are fixed in situ with TCA, to represent a measurement of the cell population for each cell line at the time of drug addition (Tz). Experimental drugs are solubilized in dimethyl sulfoxide at 400-fold the desired final maximum test concentration and stored frozen prior to use. At the time of drug addition, an aliquot of frozen concentrate is thawed and diluted to twice the desired final maximum test concentration with complete medium containing 50 μg/ml gentamicin. Additional four, 10-fold or ½ log serial dilutions are made to provide a total of five drug concentrations plus control. Aliquots of 100 μl of these different drug dilutions are added to the appropriate microtiter wells already containing 100 μl of medium, resulting in the required final drug concentrations.
# Following drug addition, the plates are incubated for an additional 48 h at 37° C., 5% CO2, 95% air, and 100% relative humidity. For adherent cells, the assay is terminated by the addition of cold TCA. Cells are fixed in situ by the gentle addition of 50 μl of cold 50% (w/v) TCA (final concentration, 10% TCA) and incubated for 60 minutes at 4° C. The supernatant is discarded, and the plates are washed five times with tap water and air dried. Sulforhodamine B (SRB) solution (100 μl) at 0.4% (w/v) in 1% acetic acid is added to each well, and plates are incubated for 10 minutes at room temperature. After staining, unbound dye is removed by washing five times with 1% acetic acid and the plates are air dried. Bound stain is subsequently solubilized with 10 mM trizma base, and the absorbance is read on an automated plate reader at a wavelength of 515 nm. For suspension cells, the methodology is the same except that the assay is terminated by fixing settled cells at the bottom of the wells by gently adding 50 μl of 80% TCA (final concentration, 16% TCA). Using the seven absorbance measurements [time zero, (Tz), control growth, (C), and test growth in the presence of drug at the five concentration levels (Ti)], the percentage growth is calculated at each of the drug concentrations levels. Percentage growth inhibition is calculated as: [(Ti−Tz)/(C−Tz)]×100 for concentrations for which Ti>/=Tz [(Ti−Tz)/Tz]×100 for concentrations for which Ti<Tz.
# Three dose response parameters are calculated for each experimental agent.
# [4] = Plasma concentration after oral dosing in MV4-11 tumor-bearing mice (LCMS); format: in vivo; settings: SCID, mouse, 24 hour after single oral 50 mg/kg
# Method: (§1) The mice carrying the established MV4-11 tumor xenografts (tumor volume around 150 mm^3) were given an oral dose of 50 mg/kg NTW-3456. At 0, 1, 2, 8, 16, 24 hours after dosing, three were euthanized. The blood samples were collected and plasma was prepared with centrifuge for LCMS assay. And the tumors were harvested, homogenized in lysis buffer, immunoprecipitated with anti-FLT3 antibody FIG. 33.
# (§2) The curve (solid dot) is the plot of plasma concentration-time profiles of NTW-3456 after oral administration of 50 mg/kg.
# [5] = system: Panc-1 pancreatic carcinoma; test: Panc-1 model of pancreatic carcinoma; format: in vivo, mouse; settings: with or without Abraxane
# [6] = system: FLT3 phosphorylation (pFLT3) of MV4-11 tumors; test: FLT3 phosphorylation in MV4-11 tumor xenografts after oral dosing; format: in vivo; settings: Mus musculus, 24 hour after single oral 50 mg/kg
# Method: as §1, §2
# [7] = system: AN3 human endometrial carcinoma xenograft; test: Endometrial carcinoma xenograft; format: in vivo, mouse
# PIP5K1γ(h) = PIP5K1γ(h) (Homo sapiens, UniProt O60331); test: KinaseProfiler kinase assay; format: biochemical
# DRAK1(h) = DRAK1(h) (Homo sapiens, UniProt Q9UEE5); test: KinaseProfiler kinase assay; format: biochemical
# CK1(y) = test: KinaseProfiler kinase assay; format: biochemical, yeast
# Chain of DRAK1(h) (Q9UEE5 whole entry): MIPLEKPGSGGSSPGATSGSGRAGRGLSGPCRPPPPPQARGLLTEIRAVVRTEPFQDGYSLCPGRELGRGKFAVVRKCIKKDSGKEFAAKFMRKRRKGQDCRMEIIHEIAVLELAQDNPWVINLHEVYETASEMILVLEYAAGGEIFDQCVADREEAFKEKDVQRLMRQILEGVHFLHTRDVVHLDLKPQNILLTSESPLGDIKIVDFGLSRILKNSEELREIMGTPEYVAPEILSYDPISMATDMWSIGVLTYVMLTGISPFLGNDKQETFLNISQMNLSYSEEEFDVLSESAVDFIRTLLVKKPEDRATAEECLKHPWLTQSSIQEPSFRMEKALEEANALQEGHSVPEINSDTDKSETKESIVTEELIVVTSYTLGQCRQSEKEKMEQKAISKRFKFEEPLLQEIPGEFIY
# Chain of PIP5K1γ(h) (O60331 whole entry): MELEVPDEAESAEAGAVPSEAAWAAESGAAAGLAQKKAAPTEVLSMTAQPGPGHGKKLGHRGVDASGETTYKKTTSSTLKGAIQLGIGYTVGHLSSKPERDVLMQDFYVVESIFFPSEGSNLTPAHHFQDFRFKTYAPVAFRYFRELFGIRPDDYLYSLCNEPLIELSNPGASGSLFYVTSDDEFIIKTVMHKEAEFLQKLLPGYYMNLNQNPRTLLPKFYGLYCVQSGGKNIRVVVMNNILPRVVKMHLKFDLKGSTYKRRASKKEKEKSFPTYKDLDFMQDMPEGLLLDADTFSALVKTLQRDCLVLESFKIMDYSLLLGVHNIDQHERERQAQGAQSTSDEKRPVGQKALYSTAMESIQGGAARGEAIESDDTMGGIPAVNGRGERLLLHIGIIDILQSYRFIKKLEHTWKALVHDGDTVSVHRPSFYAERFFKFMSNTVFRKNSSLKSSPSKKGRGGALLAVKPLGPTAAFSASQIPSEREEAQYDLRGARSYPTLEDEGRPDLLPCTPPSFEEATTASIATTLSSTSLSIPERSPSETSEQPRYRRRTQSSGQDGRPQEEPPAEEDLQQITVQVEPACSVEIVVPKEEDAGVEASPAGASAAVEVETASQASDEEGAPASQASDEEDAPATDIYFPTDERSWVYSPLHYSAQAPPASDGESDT
structure (smiles),measurement,setting,value
C/C=C/c1cc(Nc2cc(N3CCN(C)CC3)nc(Oc3ccc4[nH]c(C)cc4c3F)n2)n[nH]1 [Compound 53],maximum body weight lose,[1]; Q2Dx3,3.4%
same,treat/control (T/C),"[1]; Q2Dx3, day 30",40%
same,maximum body weight lose,[2]; QDx4,10.3%
same,treat/control (T/C),"[2]; QDx4, day 13",21%
same,GI50,"[3]; 60 cell, range over the NCI 60 cell lines (Table 6), read-out: growth inhibition (GI50)",10 to 1890 nM
same,GI50,"[3]; 786-0, Renal Cancer, 786-0, read-out: GI50",97.2 nM
same,GI50,"[3]; A498, Renal Cancer, A498, read-out: GI50",< 10 nM
same,GI50,"[3]; A549, Non-Small Cell Lung Cancer, A549/ATCC, read-out: GI50",388 nM
same,GI50,"[3]; ACHN, Renal Cancer, ACHN, read-out: GI50",190 nM
same,GI50,"[3]; BT-549, Breast Cancer, BT-549, read-out: GI50",268 nM
same,GI50,"[3]; CAKI-1, Renal Cancer, CAKI-1, read-out: GI50",901 nM
same,GI50,"[3]; CCRF-CEM, Leukemia, CCRF-CEM, read-out: GI50",< 10 nM
same,GI50,"[3]; COLO 205, Colon Cancer, COLO 205, read-out: GI50",85.9 nM
same,GI50,"[3]; DU-145, Prostate Cancer, DU-145, read-out: GI50",288 nM
same,GI50,"[3]; HCC 2998, Colon Cancer, HCC-2998, read-out: GI50",1420 nM
same,GI50,"[3]; HCT-15, Colon Cancer, HCT-15, read-out: GI50",397 nM
same,GI50,"[3]; HCT-116, Colon Cancer, HCT-116, read-out: GI50",40.1 nM
same,GI50,"[3]; HL-60, Leukemia, HL-60(TB), read-out: GI50",1430 nM
same,GI50,"[3]; HOP-62, Non-Small Cell Lung Cancer, HOP-62, read-out: GI50",91.4 nM
same,GI50,"[3]; HOP-92, Non-Small Cell Lung Cancer, HOP-92, read-out: GI50",22.4 nM
same,GI50,"[3]; HT-29, Colon Cancer, HT29, read-out: GI50",96.3 nM
same,GI50,"[3]; Hs-578T, Breast Cancer, HS 578T, read-out: GI50",13 nM
same,GI50,"[3]; IGROV-1, Ovarian Cancer, IGROV1, read-out: GI50",47.2 nM
same,GI50,"[3]; K562, Leukemia, K-562, read-out: GI50",< 10 nM
same,GI50,"[3]; KM12, Colon Cancer, KM12, read-out: GI50",< 10 nM
same,GI50,"[3]; LOX IMVI, Melanoma, LOX IMVI, read-out: GI50",34.3 nM
same,GI50,"[3]; MCF7, Breast Cancer, MCF7, read-out: GI50",< 10 nM
same,GI50,"[3]; MDA-MB-231, Breast Cancer, MDA-MB-231/ATCC, read-out: GI50",227 nM
same,GI50,"[3]; MDA-MB-435, Melanoma, MDA-MB-435, read-out: GI50",354 nM
same,GI50,"[3]; MDA-MB-468, Breast Cancer, MDA-MB-468, read-out: GI50",39.2 nM
same,GI50,"[3]; MOLT-4, Leukemia, MOLT-4, read-out: GI50",48.1 nM
same,GI50,"[3]; Malme-3M, Melanoma, MALME-3M, read-out: GI50",132 nM
same,GI50,"[3]; Melanoma, M14, read-out: GI50",166 nM
same,GI50,"[3]; NCI-H23, Non-Small Cell Lung Cancer, NCI-H23, read-out: GI50",153 nM
same,GI50,"[3]; NCI-H226, Non-Small Cell Lung Cancer, NCI-H226, read-out: GI50",< 10 nM
same,GI50,"[3]; NCI-H322M, Non-Small Cell Lung Cancer, NCI-H322M, read-out: GI50",915 nM
same,GI50,"[3]; NCI-H460, Non-Small Cell Lung Cancer, NCI-H460, read-out: GI50",86.9 nM
same,GI50,"[3]; NCI-H522, Non-Small Cell Lung Cancer, NCI-H522, read-out: GI50",72.2 nM
same,GI50,"[3]; NCI/ADR-RES, Ovarian Cancer, NCI/ADR-RES, read-out: GI50",1540 nM
same,GI50,"[3]; OVCAR-3, Ovarian Cancer, OVCAR-3, read-out: GI50",1070 nM
same,GI50,"[3]; OVCAR-4, Ovarian Cancer, OVCAR-4, read-out: GI50",1550 nM
same,GI50,"[3]; OVCAR-5, Ovarian Cancer, OVCAR-5, read-out: GI50",171 nM
same,GI50,"[3]; OVCAR-8, Ovarian Cancer, OVCAR-8, read-out: GI50",187 nM
same,GI50,"[3]; Prostate Cancer, PC-3, read-out: GI50",1270 nM
same,GI50,"[3]; RPMI-8226, Leukemia, RPMI-8226, read-out: GI50",1890 nM
same,GI50,"[3]; RXF 393, Renal Cancer, RXF 393, read-out: GI50",18.4 nM
same,GI50,"[3]; SF530, CNS Cancer, SF-530, read-out: GI50",65.8 nM
same,GI50,"[3]; SF-268, CNS Cancer, SF-268, read-out: GI50",87.7 nM
same,GI50,"[3]; SF-295, CNS Cancer, SF-295, read-out: GI50",91 nM
same,GI50,"[3]; SK-MEL-2, Melanoma, SK-MEL-2, read-out: GI50",1420 nM
same,GI50,"[3]; SK-MEL-5, Melanoma, SK-MEL-5, read-out: GI50",1270 nM
same,GI50,"[3]; SK-MEL-28, Melanoma, SK-MEL-28, read-out: GI50",342 nM
same,GI50,"[3]; SK-OV-3, Ovarian Cancer, SK-OV-3, read-out: GI50",421 nM
same,GI50,"[3]; SN12C, Renal Cancer, SN12C, read-out: GI50",48.7 nM
same,GI50,"[3]; SNB-19, CNS Cancer, SNB-19, read-out: GI50",205 nM
same,GI50,"[3]; SNB-75, CNS Cancer, SNB-75, read-out: GI50",15.8 nM
same,GI50,"[3]; SW-620, Colon Cancer, SW-620, read-out: GI50",44.1 nM
same,GI50,"[3]; T47D, Breast Cancer, T-47D, read-out: GI50",1030 nM
same,GI50,"[3]; U-251, CNS Cancer, U251, read-out: GI50",103 nM
same,GI50,"[3]; UACC-62, Melanoma, UACC-62, read-out: GI50",502 nM
same,GI50,"[3]; UACC-257, Melanoma, UACC-257, read-out: GI50",388 nM
same,GI50,"[3]; UO-31, Renal Cancer, UO-31, read-out: GI50",81 nM
C/C=C/c1cc(Nc2cc(N3CCN(C)CC3)nc(Oc3cc(F)c4[nH]c(C)cc4c3F)n2)n[nH]1 [NTW-3456],concentration at 24 h,[4],7 nM
same,anti-tumor activity,[5],significant anti-tumor activity
same,inhibition at 50 mg/kg,[6],> 60%
same,anti-tumor effect,[7],significant anti-tumor activity
same,antiproliferative activity,[3]; cell lines from the NCI 60 panel,Anti-proliferative activity
Cc1cc2c(F)c(Oc3nc(Nc4cc(C5CC5)[nH]n4)cc(N4CCN(C)CC4)n3)ccc2[nH]1 [Compound 10],inhibition at 0.1 µM,PIP5K1γ(h),-8%
same,inhibition at 0.1 µM,DRAK1(h),36%
same,% inhibition @ 0.1 μM,CK1(y),17%
"Cc1cc2c(F)c(Oc3nc(Nc4cc(C5CC5)[nH]n4)cc(N4CCNCC4)n3)ccc2[nH]1 [Compound 11, N-(5-cyclopropyl-1H-pyrazol-3-yl)-2-((4-fluoro-2-methyl-1H-indol-5-yl)oxy)-6-(piperazin-1-yl)pyrimidin-4-amine]",inhibition at 0.1 µM,PIP5K1γ(h),-5%
same,inhibition at 0.1 µM,DRAK1(h),42%
same,% inhibition @ 0.1 μM,CK1(y),4%
